Counter-ions that a name gives are not always drawn.

We go through 15 molecules from patent US20070078120A1, “Novel piperidine derivative” (priority 2003, published 2007).

The test system of data set [1] is LDL receptor. In words: LDL receptor activity: amount of DiI-LDL uptaken into HepG2 cells. It is filed as cell-based, human. To be noted: DiI-LDL uptake into HepG2 cells, control group = 100%. The method, then:
A preparation of 1,1′-dioctadecyl-3,3,3′,3′-tetramethylindocarbocyanine perchlorate (DiI)-labeled LDL (DiI-LDL) was carried out as follows. That is, DiI (invitrogen, the U.S.) was mixed with human LDL (CHEMICON, the U.S.), and the mixture was kept for 8 hours at 37° C. Thereto a specific density solution (d=1.182) was added and mixed, and then treated with super centrifugation operation (32 k rpm, 14 hours; using Beckman Ti55.2 rotator). After the centrifugation, the DiI labeled LDL fraction was taken up and prepared via a dialysis against saline.
The action on LDL receptor was determined with the amount of the DiI-LDL uptaken into HepG2 cells which was as an indicator. Namely, human hepatoma cell line HepG2 was bought from DAINIPPON PHARMACEUTICAL CO., LTD (Osaka, Japan) and it was used for the experiment. The HepG2 cells were plated on a 96 well plate and incubated with Dulbecco's modified Eagle/F-12 medium (DMEM/F-12) containing 10% fetal bovine serum and antibiotics for 2-3 days at 37° C. in a CO2 incubator. After washing the cells, DMEM/F-12 media containing the test compound, 10% delipoprotein serum and antibiotics was added thereto and cells were incubated for 19 hours at 37° C. The DiI-LDL was added thereto, and cells were incubated for additional 5 hours at 37° C. in a CO2 incubator. For the measurement of the amount of nonspecific DiI-LDL uptake, another 30-50 times the nonlabeled LDL was added additively to each well. After washing cells with Dulbecco's phosphate buffer (SIGMA, the U.S.), Dulbecco's phosphate buffer was added to each well, and then the fluorescence value was measured with a fluorescence plate reader to determine the amount of the DiI-LDL uptaken into cells. After measuring the fluorescence, the Dulbecco's phosphate buffer was removed. Cells were dissolved in 1N sodium hydroxide solution. Using a part of the solution, the protein amount was measured. The action of each compound on LDL receptor was estimated on the basis of 100% of the control group, using the value given by subtracting the nonspecifically uptaken amount from the calculated fluorescence value/protein amount.

In data set [2] the test system is LDL receptor. In words: Measurement of LDL receptor expression: LDL-R protein amount by immunoblotting in HepG2 cells. It is filed as cell-based, human. As to conditions: compared with the control group. The method, then: We investigated the effect of each test compound on the amount of LDL receptor in HepG2 cells, a human hepatoma cell line. Cells were seeded in each well of 6-well plates at the density of 7.5×10^5 cells/well (day 1). On day 3, the culture media was changed to a media containing lipoprotein deficient serum and the test compound. On day 4, the cells were scraped and then collected by centrifugation operation. The collected cells were lysed in a buffer containing 0.1% TritonX-100, treated with centrifugation, and then the supernatant was given as a cell protein solution. Using the prepared cell protein solution, the LDL-R protein amount was determined with an immunoblotting procedure.
HepG2 cells were treated with the compound of Examples 1-4, and then LDL receptor protein amount was determined by immunoblotting procedure.
On the technique in general: Immunoblotting shows a protein as a band on a membrane.

On to “1-(2-methoxyphenyl)-4-[3-(methylamino)-phenyl]piperidine-4-carbonitrile and 4-[3-(dimethylamino)-phenyl]-1-(2-methoxyphenyl)piperidine-4-carbonitrile [Example 20]”, for which the “Activity of LDL receptor(%)” value in data set [1] (10 μM) is on record as 123%. In the case of `COc1cccc([C@]2(C#N)CC[C@H](N3CCNCC3)CC2)c1` (as salt: hydrochloride) [Example 58-1, trans-1-(3-methoxyphenyl)-4-piperazin-1-yl-cyclohexanecarbonitrile dihydrochloride], the melting point (as a rule, the temperature of the solid-liquid transition) was in the range of 159 to 160 °C.

For the molecule `COc1cccc(C2(C#N)CCN(c3ccccc3OC)CC2)c1` [Example 1-4, 1-(2-methoxyphenyl)-4-(3-methoxyphenyl)-piperidine-4-carbonitrile], the “LDL receptor protein amount (immunoblotting)” value in data set [2] (1 μM) and in data set [2] (10 μM) was “superior activity enhancing the protein amount of LDL receptor” in each case. In data set [1] (10 μM), the “Activity of LDL receptor(%)” value came to 134%.

Turning to `COc1cccc(C2(C#N)CCN(c3ncccc3OCc3ccccc3)CC2)c1` [Example 6-3, 1-[3-(Benzyloxy)pyridin-2-yl]-4-(3-methoxyphenyl)-piperidine-4-carbonitrile], the “Activity of LDL receptor(%)” value in data set [1] (10 μM) is recorded as 127%. For the molecule `COc1cccc(C2(C#N)CCN(c3nc4ccccc4s3)CC2)c1` [Example 7-3, 1-(1,3-Benzothiazol-2-yl)-4-(3-methoxyphenyl)piperidine-4-carbonitrile], in data set [1] (3 μM), the “Activity of LDL receptor(%)” value turned out to be 125%. As to `COc1cccc(C2(CO)CCN(c3ccccc3OC)CC2)c1` [Example 12, [1-(2-Methoxyphenyl)-4-(3-methoxyphenyl)piperidin-4-yl]-methanol], the “Activity of LDL receptor(%)” value in data set [1] (10 μM) turned out to be 134%. On the same count and under the same terms, the figure for `COc1cccc(C2(C(=O)NCc3ccccc3)CCN(c3ncccn3)CC2)c1` [Example 43-2, N-benzyl-4-(3-methoxyphenyl)-1-pyrimidin-2-ylpiperidine-4-carboxyamide] is 116%. Take `COc1cccc(C2(C(=S)NCc3ccccc3)CCN(c3ncccn3)CC2)c1` [Example 44, N-benzyl-4-(3-methoxyphenyl)-1-pyrimidin-2-ylpiperidine-4-carbothioamide]: the “Activity of LDL receptor(%)” value in data set [1] (3 μM) turned out to be 135%.

On to `COc1cccc(C2(C(N)=O)CC3CCC(C2)N3c2ccccc2OC)c1` (centres unmarked) [Example 49-f, 8-(2-Methoxyphenyl)-3-(3-methoxyphenyl)-8-azabicyclo-[3.2.1]octane-3-carboxyamide], for which the “Activity of LDL receptor(%)” value in data set [1] (10 μM) is 135%. In the case of `COc1cccc(C2(CN3CCCCC3)CCN(c3ccccc3OC)CC2)c1` [Example 55-1, 1-(2-methoxyphenyl)-4-(3-methoxyphenyl)-4-(piperidin-1-ylmethyl)piperidine], in data set [1] (1 μM), the “Activity of LDL receptor(%)” value is on record as 141%.

Consider `COc1cccc([C@]2(C#N)CC[C@H](N3CCNCC3)CC2)c1` [Example 58-1, trans-1-(3-methoxyphenyl)-4-piperazin-1-yl-cyclohexanecarbonitrile dihydrochloride], for which the “Activity of LDL receptor(%)” value in data set [1] (10 μM) stood at 152%. In the case of `COc1cccc(C2(C#N)CCC(N3CCN(c4ncccn4)CC3)CC2)c1` (centres unmarked) [Example 82, 1-(3-methoxyphenyl)-4-(4-pyrimidin-2-yl-piperazin-1-yl)cyclohexanecarbonitrile], in data set [1] (10 μM), the “Activity of LDL receptor(%)” value was determined as 125%.

`COc1cccc(C2(C#N)CCN(C3CCNCC3)CC2)c1` [Example 85, 4-(3-methoxyphenyl)-1,4′-bipiperidine-4-carbonitrile dihydrochloride]: the “Activity of LDL receptor(%)” value in data set [1] (10 μM) is 149%. `COc1cccc(C2(C#N)CCN(C3CCN(Cc4ccccc4)CC3)CC2)c1` [Example 89, 1′-benzyl-4-(3-methoxyphenyl)-1,4′-bipiperidine-4-carbonitrile]: the “Activity of LDL receptor(%)” value in data set [1] (10 μM) was found to be 195%.

In the case of `COc1cccc([C@]2(C#N)CC[C@@H](NCc3ccccc3)CC2)c1` [Example 105, cis-4-(benzylamino)-1-(3-methoxyphenyl)-cyclohexanecarbonitrile], in data set [1] (10 μM), the “Activity of LDL receptor(%)” value amounted to 139%.
